Measurements published in patent US20250171436A1, “Tricyclic Fused Heterocyclic PDE3/4 Dual Inhibitor and Use Thereof” (XIZANG HAISCO PHARMACEUTICAL CO., LTD., priority 2022, published 2025).

Legend:
[1] = biological target: T1, PDE4B2 recombinant enzyme (Homo sapiens, UniProt Q07343); test: In vitro assay of inhibitory activity against PDE 4B2 enzyme (FP, FAM-cAMP); format: biochemical; conditions: in vitro screening assay
T1 construct: purchased BPS 60343
Protocol: (§1) • 1. In vitro assay of the inhibitory activity of compounds against PDE 3A and PDE 4B2 enzymes
(§2) • Envision 2104 Multilabel Reader (PerkinElmer) • Black 96-well Plate (Cat #6005540, PerkinElmer) • PDE3A Assay Kit (BPS, Cat. 79736), PDE4B2 Assay Kit (BPS, Cat. 60343) • PDE3A recombinant enzyme • PDE4B2 recombinant enzyme • FAM-Cyclic-3′, 5′-AMP • PDE assay buffer • Binding Agent • Binding Agent Diluent (cAMP)
(§3) • 1) Prepare FAM cAMP working solution: 20 μL of FAM-Cyclic-3′,5′-AMP stock was added to 1980 μL of PDE assay buffer. The mixture was added to all wells at 25 μL/well. • 2) Prepare compound solution: the test compounds were dissolved in DMSO to give a 10 mM stock solution. The compound stock solution was diluted with DMSO to a 100× Top Dose diluent. 5 μL of 100× Top Dose diluent was added to 45 μL of PDE assay buffer to prepare a compound Top Dose working solution. Then, the compound working solution was subjected to double dilution with PDE assay buffer containing 10% DMSO to prepare compound working solutions of various concentrations. The compound working solutions were added to compound wells at 5 μL/well. 5 μL of PDE assay buffer containing 10% DMSO was added to each control well. • 3) Prepare PDE enzyme solution: PDE3A and PDE4B2 enzyme stock solutions were diluted to 150 pg/μL and 50 pg/μL, respectively, with PDE assay buffer, and added to all compound wells and Vehicle control wells at 20 μL/well. 20 μL of PDE assay buffer was added to Blank control wells. • 4) React at room temperature for 1 h. • 5) Prepare Binding Agent: 80 μL of binding agent was added to 7920 μL of binding agent diluent, and the mixture was mixed well and added to all wells at 100 μL/well. • 6) React at room temperature for 1 h. • 7) Read FP on Envision. • 8) Calculation formula for original data:
(§4) % inhibition rate=(FPV−FPS)/(FPV−FPB)×100% • FPS=sample FP • FPV=Vehicle control FP • FPB=Blank control FP.
(§5) Nonlinear regression analysis of log[dose]-inhibition rate was performed by graphpad and IC50 was calculated.

PDE3A recombinant enzyme = biological target: T2, PDE3A recombinant enzyme (Homo sapiens, UniProt Q14432); test: In vitro assay of inhibitory activity against PDE 3A enzyme (FP, FAM-cAMP); format: biochemical; conditions: in vitro screening assay
T2 construct: purchased BPS 79736
T2 sequence (Q14432 whole entry): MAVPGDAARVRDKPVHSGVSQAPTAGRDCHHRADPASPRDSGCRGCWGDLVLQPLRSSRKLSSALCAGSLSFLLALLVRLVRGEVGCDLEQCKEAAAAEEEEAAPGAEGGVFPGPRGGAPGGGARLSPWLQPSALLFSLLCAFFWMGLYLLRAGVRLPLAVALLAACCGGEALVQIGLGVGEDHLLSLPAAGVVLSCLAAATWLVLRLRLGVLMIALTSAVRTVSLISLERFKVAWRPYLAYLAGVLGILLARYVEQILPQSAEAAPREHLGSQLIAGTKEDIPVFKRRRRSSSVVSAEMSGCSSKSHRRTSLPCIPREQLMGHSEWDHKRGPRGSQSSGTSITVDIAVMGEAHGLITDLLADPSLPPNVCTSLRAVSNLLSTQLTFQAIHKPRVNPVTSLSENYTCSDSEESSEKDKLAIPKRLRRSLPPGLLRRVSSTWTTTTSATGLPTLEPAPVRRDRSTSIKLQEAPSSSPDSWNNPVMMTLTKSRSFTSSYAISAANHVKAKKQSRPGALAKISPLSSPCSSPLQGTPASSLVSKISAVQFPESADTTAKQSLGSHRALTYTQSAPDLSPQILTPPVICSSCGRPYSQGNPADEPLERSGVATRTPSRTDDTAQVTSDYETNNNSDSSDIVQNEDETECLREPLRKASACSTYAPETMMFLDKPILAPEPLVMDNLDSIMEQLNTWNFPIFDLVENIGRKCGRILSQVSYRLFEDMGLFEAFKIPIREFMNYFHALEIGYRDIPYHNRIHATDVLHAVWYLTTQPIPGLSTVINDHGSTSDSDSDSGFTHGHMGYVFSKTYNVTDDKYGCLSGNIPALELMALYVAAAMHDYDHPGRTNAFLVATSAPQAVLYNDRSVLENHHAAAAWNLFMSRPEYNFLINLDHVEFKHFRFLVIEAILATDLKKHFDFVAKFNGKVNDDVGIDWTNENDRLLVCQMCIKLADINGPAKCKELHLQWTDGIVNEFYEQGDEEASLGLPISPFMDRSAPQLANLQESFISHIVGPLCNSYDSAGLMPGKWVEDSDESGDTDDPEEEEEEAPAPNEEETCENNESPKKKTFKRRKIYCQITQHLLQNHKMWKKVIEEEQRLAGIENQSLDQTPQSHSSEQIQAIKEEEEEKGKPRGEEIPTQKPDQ
Protocol: as §1, §2, §3, §4, §5

[2] = reported in WO 2000058308 A1; cited from earlier work
PDE4 = conditions: biological activity data, background; cited from earlier work
[3] = reported in WO 2000058308 A1; cited from earlier work; remark: listed apart in the source

T1 sequence (Q07343 1-564 isoform Q07343-2): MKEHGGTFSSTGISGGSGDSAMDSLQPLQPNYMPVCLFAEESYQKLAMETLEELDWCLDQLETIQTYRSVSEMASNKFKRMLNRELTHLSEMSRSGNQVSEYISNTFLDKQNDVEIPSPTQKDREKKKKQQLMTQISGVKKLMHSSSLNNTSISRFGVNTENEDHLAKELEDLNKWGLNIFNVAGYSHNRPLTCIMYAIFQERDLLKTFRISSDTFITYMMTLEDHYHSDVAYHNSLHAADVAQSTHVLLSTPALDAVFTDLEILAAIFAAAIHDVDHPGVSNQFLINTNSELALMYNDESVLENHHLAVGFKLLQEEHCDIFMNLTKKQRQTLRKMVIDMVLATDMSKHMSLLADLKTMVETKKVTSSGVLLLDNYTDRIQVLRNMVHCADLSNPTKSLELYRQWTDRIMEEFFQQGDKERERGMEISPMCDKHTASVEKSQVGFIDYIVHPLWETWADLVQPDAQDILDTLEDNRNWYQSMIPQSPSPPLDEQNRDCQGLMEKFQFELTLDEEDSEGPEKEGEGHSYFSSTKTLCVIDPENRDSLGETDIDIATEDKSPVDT

IC50 [1] [nM]	IC50 (PDE3A recombinant enzyme) [nM]	SMILES	plasma clearance [2]	PDE4 inhibitory activity (PDE4)	solubility [3]
1.4	0.59	CCOc1cc2c(cc1OC)-c1c/c(=N\c3c(C)cc(C4CC4)cc3C)n(CCNC(=O)c3c(O)nnn3C)c(=O)n1CC2 [Compound 8, (E)-N-(2-(2-((4-cyclopropyl-2,6-dimethylphenyl)imino)-9-ethoxy-10-methoxy-4-oxo-6,7-dihydro-2H-pyrimido[6,1-a]isoquinolin-3(4H)-yl)ethyl)-4-hydroxy-1-methyl-1H-1,2,3-triazole-5-carboxamide]			
		COc1cc2c(cc1OC)-c1c/c(=N\c3c(C)cc(C)cc3C)n(CCNC(N)=O)c(=O)n1CC2 [RPL554]	high	unsatisfactory	poor
8.43	0.53	COc1cc2c(cc1OC)-c1c/c(=N\c3c(C)cc(C4CC4)cc3C)n(CCNC(=O)c3c(O)nnn3C)c(=O)n1CC2 [Compound 6, (E)-N-(2-(2-((4-cyclopropyl-2,6-dimethylphenyl)imino)-9,10-dimethoxy-4-oxo-6,7-dihydro-2H-pyrimido[6,1-a]isoquinolin-3(4H)-yl)ethyl)-4-hydroxy-1-methyl-1H-1,2,3-triazole-5-carboxamide]			
1.52	0.5	CCOc1cc2c(cc1OC)-c1c/c(=N\c3c(C)cc(OC)cc3C)n(CCNC(=O)c3c(O)nnn3C)c(=O)n1CC2 [Compound 9, (E)-N-(2-(9-ethoxy-10-methoxy-2-((4-methoxy-2,6-dimethylphenyl)imino)-4-oxo-6,7-dihydro-2H-pyrimido[6,1-a]isoquinolin-3(4H)-yl)ethyl)-4-hydroxy-1-methyl-1H-1,2,3-triazole-5-carboxamide]			
